Data published in patent US6583171B1, “Antineoplastic agents” (Welichem Biotech Inc., priority 1996, dated 2003).
Where two headings read alike, the source gives them in different places. Values belong to the compound of their own block, whether it stands above or below them.

Key:
Hela = test: NCI sulforhodamine B (SRB) anticancer assay, Hela; assay type: cell-based
Excerpt: (§1) The method normally used by the American National Cancer Institute (NCI) for the effectiveness of a compound is based on the LC50. The LC50 is the compound concentration at which half of the cancer cell population is killed. The assay is commonly used by those skilled in the art and are accepted as indicative of anticancer activity in mammals. The test animal cancer cells are available from ATCC, NCI and other organizations. The anticancer activities of compounds of the present invention have been determined in cell cultures of various human cancer cells (see table below) using the standard NCI method with slight modifications. The specifications of the procedure was described by Skehan et al. (1990). Briefly, cancer cells were grown in RPMI-1640 medium with glutamine and 10% fetal calf serum, and were harvested from exponential-phase maintenance cultures. The harvested cells were counted and dispensed into replicate 96-well culture plates in 180 μl volumes for each well with a cell density of up to 2,500 cells/well. The cells were allowed to settle for about 4 hours at 37° C. Then 20 μl of medium containing the test compound was added into each well, resulting in a suitable final test compound concentration. The test plates were then incubated at 37° C. The test was terminated after incubation by adding to each well 50 1 of cold 50% trichloroacetic acid. The cells were fixed for an hour at 4° C. and then washed five times with tap water. The washed plates were air-dried and stained for 30 minutes with 0.4% (wt/vol) sulforhodamine B (SRB) which was dissolved in 1% acetic acid. At the end of the staining period, the SRB was removed and plates were quickly rinsed five times with 1% acetic acid. After being rinsed, the plates were air-dried and 100 μl of 10 mM tris base (pH 10.5) were added to each well to dissolve the dye bound to the cells. The plates were placed on a gyratory shaker and shaken (100 rpm) for 10 minutes. Finally, the plates were read in a microtiter plate reader at 570 nm.

HT29 = test: NCI sulforhodamine B (SRB) anticancer assay, HT29; assay type: cell-based
Excerpt: as §1

MCF-7 = test: NCI sulforhodamine B (SRB) anticancer assay, MCF-7; assay type: cell-based
Excerpt: as §1

Breast Cancer (LCC6) = test: Anticancer activity of xenorxide derivatives (Example 8), LCC6; assay type: cell-based; conditions: Homo sapiens, LCC-6; LCC6 breast cancer cells
Excerpt: (§2) Anticancer Activity of Xenorxide Derivatives Against Human Lung Cancer (H460) and Breast Cancer (LCC6)

Human Lung Cancer (H460) = test: Anticancer activity of xenorxide derivatives (Example 8), H460; assay type: cell-based; conditions: NCI-H460; H460 human lung cancer cells
Excerpt: as §2

NCI-H460 = test: NCI sulforhodamine B (SRB) anticancer assay, NCI-H460; assay type: cell-based; conditions: NCI-H460 cells, read-out: LC50 (the source's name)
Excerpt: as §1

P388 = test: NCI sulforhodamine B (SRB) anticancer assay, P388; assay type: cell-based; conditions: P388 cells; read-out: LC50 (the source's name)
Excerpt: as §1, with “The test was terminated after incubation by adding to each well 50 1 of cold 50% trichloroacetic acid. The cells were fixed for an hour at 4° C. and then washed five times with tap water. The washed plates were air-dried and stained for 30 minutes with 0.4% (wt/vol) sulforhodamine B (SRB) which was dissolved in 1% acetic acid. At the end of the staining period, the SRB was removed and plates were quickly rinsed five times with 1% acetic acid. After being rinsed, the plates were air-dried and 100 μl of 10 mM tris base (pH 10.5) were added to each well to dissolve the dye bound to the cells. The plates were placed on a gyratory shaker and shaken (100 rpm) for 10 minutes.” left out

UO-31 (Renal cancer) = test: NCI sulforhodamine B (SRB) anticancer assay, UO-31; assay type: cell-based; conditions: UO-31 (Renal cancer) cells, read-out: LC50 (the source's name)
Excerpt: as §1

Sk-Mel-28 = test: NCI sulforhodamine B (SRB) anticancer assay, Sk-Mel-28; assay type: cell-based; conditions: Sk-Mel-28 cells, read-out: LC50 (the source's name)
Excerpt: as §1

SF-295 (CNS cancer) = test: NCI sulforhodamine B (SRB) anticancer assay, SF-295; assay type: cell-based; conditions: SF-295 (CNS cancer) cells, read-out: LC50 (the source's name)
Excerpt: as §1

LNCap = test: NCI sulforhodamine B (SRB) anticancer assay, LNCap; assay type: cell-based, human; conditions: LNCap cells; read-out: LC50 (the source's name)
Excerpt: as §1, with “The test was terminated after incubation by adding to each well 50 1 of cold 50% trichloroacetic acid. The cells were fixed for an hour at 4° C. and then washed five times with tap water. The washed plates were air-dried and stained for 30 minutes with 0.4% (wt/vol) sulforhodamine B (SRB) which was dissolved in 1% acetic acid. At the end of the staining period, the SRB was removed and plates were quickly rinsed five times with 1% acetic acid. After being rinsed, the plates were air-dried and 100 μl of 10 mM tris base (pH 10.5) were added to each well to dissolve the dye bound to the cells. The plates were placed on a gyratory shaker and shaken (100 rpm) for 10 minutes.” left out

DU-145 (Prostate cancer) = test: NCI sulforhodamine B (SRB) anticancer assay, DU-145; assay type: cell-based; conditions: DU-145 (Prostate cancer) cells, read-out: LC50 (the source's name)
Excerpt: as §1

[1] = Hela cells, read-out: LC50 (the source's name)
[2] = HT29 cells, concentration at which half of the cancer cell population is killed, read-out: LC50 (the source's name)
[3] = MCF-7 cells, read-out: LC50 (the source's name)

Compound: CCCCCC(=O)Nc1c2sscc-2n(C)c1=O [XN1, 6-(Hexanamido)-4-methyl-4,5-dihydro-1.2-dithiolo[4,3-b]pyrrol-5-one]
CC50 (Hela; [1]): 460 nM
CC50 (HT29; [2]): 110 nM
CC50 (MCF-7; [3]): 560 nM

IC50 (Breast Cancer (LCC6)): 670 nM
IC50 (Human Lung Cancer (H460)): 560 nM
Compound: CC(=O)NC1=C2C(=CSS2(=O)=O)N(c2ccccc2)C1=O [CSL-30]

Compound: CCCCCC(=O)Nc1c2[s+]([O-])scc-2n(C)c1=O (stereo not drawn) [XM1]
CC50 (Hela; [1]): 800 nM
CC50 (HT29; [2]): 470 nM
CC50 (MCF-7; [3]): 470 nM

Compound: CC(=O)Nc1c2sscc-2n(C)c1=O [XN0, 6-(Acetamido)-4-methyl-4,5dihydro-1.2-dithiolo[4,3-b]pyrrol-5-one]
CC50 (Hela; Homo sapiens, HeLa, read-out: LC50): 310 nM
CC50 (HT29; Homo sapiens, HT-29, read-out: LC50): 130 nM
CC50 (MCF-7; Homo sapiens, MCF7, read-out: LC50): 350 nM

Compound: CCCCCC(=O)NC1=C2C(=CSS2(=O)=O)N(C)C1=O [XO1]
CC50 (NCI-H460): 280 nM
CC50 (Hela; [1]): 160 nM
CC50 (P388): 660 nM
CC50 (HT29; [2]): 220 nM
CC50 (MCF-7; [3]): 890 nM
CC50 (UO-31 (Renal cancer)): 1850 nM
CC50 (Sk-Mel-28): 190 nM
CC50 (SF-295 (CNS cancer)): 1580 nM
CC50 (LNCap): 540 nM
CC50 (DU-145 (Prostate cancer)): 1800 nM

Compound: CC(C)CCCC(=O)Nc1c2sscc-2[nH]c1=O [XN3, 6(5′-Methylhexanamido)-4,5-dihydro1,2-dithiolo[4,3-b]pyrrol-5one]
CC50 (NCI-H460; Homo sapiens): 30 nM
CC50 (Hela; Homo sapiens, Hela cells, read-out: LC50 (the source's name)): 320 nM
CC50 (HT29; Homo sapiens, HT-29, HT29 cells, concentration at which half of the cancer cell population is killed, read-out: LC50 (the source's name)): 110 nM
CC50 (MCF-7; Homo sapiens, MCF7, MCF-7 cells, read-out: LC50 (the source's name)): 390 nM
CC50 (UO-31 (Renal cancer); Homo sapiens): 180 nM
CC50 (Sk-Mel-28; Homo sapiens): 240 nM
CC50 (SF-295 (CNS cancer); Homo sapiens): 40 nM
CC50 (DU-145 (Prostate cancer); Homo sapiens): 140 nM

Compound: CC(C)CCCC(=O)Nc1c2[s+]([O-])scc-2n(C)c1=O (stereo not drawn) [XM2]
CC50 (Hela; [1]): 210 nM
CC50 (HT29; [2]): 110 nM
CC50 (MCF-7; [3]): 550 nM

IC50 (Breast Cancer (LCC6)): 1970 nM
IC50 (Human Lung Cancer (H460)): 1980 nM
Compound: O=C(NC1=C2C(=CSS2(=O)=O)N(Cc2ccccc2)C1=O)c1ccccc1 [CSL-29]

Compound: CC(C)CCCC(=O)NC1=C2C(=CSS2(=O)=O)N(C)C1=O [XO2]
CC50 (NCI-H460): 220 nM
CC50 (Hela; [1]): 130 nM
CC50 (P388): 280 nM
CC50 (HT29; [2]): 850 nM
CC50 (MCF-7; [3]): 950 nM
CC50 (UO-31 (Renal cancer)): 6000 nM
CC50 (Sk-Mel-28): 730 nM
CC50 (SF-295 (CNS cancer)): 2120 nM
CC50 (LNCap): 190 nM
CC50 (DU-145 (Prostate cancer)): 1600 nM

IC50 (Breast Cancer (LCC6)): 1630 nM
IC50 (Human Lung Cancer (H460)): 230 nM
Compound: COc1ccc(N2C(=O)C(NC(C)=O)=C3C2=CSS3(=O)=O)cc1 [BLI-042-1]

IC50 (Breast Cancer (LCC6)): 6380 nM
IC50 (Human Lung Cancer (H460)): 2130 nM
Compound: COc1ccc(N2C(=O)C(NC(=O)C(F)(F)F)=C3C2=CSS3(=O)=O)cc1 [BLI-041-1]
